Data taken from US20100298141A1, “SUBSTITUTED PYRIDINE N-OXIDE HERBICIDES” (E. I. DU PONT DE NEMOURS AND COMPANY, priority 2007, published 2010).

What was measured:
morningglory = experiment: Test A pre-/postemergence greenhouse test; format: in vivo, Ipomoea spp.; settings: for Plant response rating, Morningglory: 0 to 100 scale where 0 is no effect and 100 is complete control; for Morningglory plant response rating: 0 to 100 scale
Source text: (§1) Seeds of barnyardgrass (Echinochloa crus-galli), crabgrass (Digitaria sanguinalis), giant foxtail (Setaria faberi), morningglory (Ipomoea spp.), redroot pigweed (Amaranthus retroflexus), velvetleaf (Abutilon theophrasti), wheat (Triticum aestivum), and corn (Zea mays) were planted into a blend of loam soil and sand and treated preemergence with a directed soil spray using test compounds formulated in a non-phytotoxic solvent mixture which included a surfactant. At the same time these species were also treated with postemergence applications of test compounds formulated in the same manner. Plants ranged in height from two to ten cm and were in the one- to two-leaf stage for the postemergence treatment. Treated plants and untreated controls were maintained in a greenhouse for approximately ten days, after which time all treated plants were compared to untreated controls and visually evaluated for injury. […] A dash (-) response means no test results.

wheat = experiment: Test A pre-/postemergence greenhouse test; format: in vivo, Triticum aestivum; settings: for Plant response rating, Wheat: 0 to 100 scale where 0 is no effect and 100 is complete control; for Wheat plant response rating: 0 to 100 scale
Source text: as §1

barnyardgrass [1] = experiment: Test C flooded paddy test; format: in vivo, Echinochloa crus-galli; settings: Flood, scale 0 to 100, 0 no effect, 100 complete control, 13 to 15 days
Source text: (§2) At time of treatment, test pots were flooded to 3 cm above the soil surface, treated by application of test compounds directly to the paddy water, and then maintained at that water depth for the duration of the test. Treated plants and controls were maintained in a greenhouse for 13 to 15 days, after which time all species were compared to controls and visually evaluated. […] A dash (-) response means no test result.

velvetleaf = experiment: Test A pre-/postemergence greenhouse test; format: in vivo, Abutilon theophrasti; settings: for Plant response rating, Velvetleaf: 0 to 100 scale where 0 is no effect and 100 is complete control; for Velvetleaf plant response rating: 0 to 100 scale
Source text: as §1

umbrella sedge = experiment: Test C flooded paddy test; format: in vivo, Cyperus difformis; settings: Flood, 250 g ai/ha; scale 0 to 100, 0 no effect, 100 complete control; 13 to 15 days
Source text: as §2

giant foxtail = experiment: Test A pre-/postemergence greenhouse test; format: in vivo, Setaria faberi; settings: for Plant response rating, Foxtail, Giant: 0 to 100 scale where 0 is no effect and 100 is complete control; for Foxtail, Giant plant response rating: 0 to 100 scale
Source text: as §1

corn = experiment: Test A pre-/postemergence greenhouse test; format: in vivo, Zea mays; settings: for Plant response rating, Corn: 0 to 100 scale where 0 is no effect and 100 is complete control; for Corn plant response rating: 0 to 100 scale
Source text: as §1

barnyardgrass [2] = experiment: Test A pre-/postemergence greenhouse test; format: in vivo, Echinochloa crus-galli; settings: for Plant response rating, Barnyardgrass: 0 to 100 scale where 0 is no effect and 100 is complete control; for Barnyardgrass plant response rating: 0 to 100 scale
Source text: as §1

crabgrass = experiment: Test A pre-/postemergence greenhouse test; format: in vivo, Digitaria sanguinalis; settings: for Plant response rating, Crabgrass, Large: 0 to 100 scale where 0 is no effect and 100 is complete control; for Crabgrass, Large plant response rating: 0 to 100 scale
Source text: as §1

rice = experiment: Test C flooded paddy test; format: in vivo, Oryza sativa; settings: Flood, scale 0 to 100, 0 no effect, 100 complete control, 13 to 15 days
Source text: as §2

duck salad = experiment: Test C flooded paddy test; format: in vivo, Heteranthera limosa; settings: Flood, scale 0 to 100, 0 no effect, 100 complete control, 13 to 15 days
Source text: as §2

redroot pigweed = experiment: Test A pre-/postemergence greenhouse test; format: in vivo, Amaranthus retroflexus; settings: for Plant response rating, Pigweed: 0 to 100 scale where 0 is no effect and 100 is complete control; for Pigweed plant response rating: 0 to 100 scale
Source text: as §1

[3] = Postemergence, 500 g ai/ha, 0 is no effect, 100 is complete control
[4] = Preemergence, 125 g ai/ha, 0 no effect, 100 complete control
[5] = Preemergence, 500 g ai/ha, 0 no effect, 100 complete control

Row | SMILES | Plant response rating, Morningglory (morningglory; Postemergence, 125 g ai/ha) | Morningglory plant response rating (morningglory; [3]) | Morningglory plant response rating (morningglory; [4]) | Plant response rating, Wheat (wheat; Postemergence, 125 g ai/ha) | Wheat plant response rating (wheat; [3]) | Wheat plant response rating (wheat; [4]) | Plant response rating, Velvetleaf (velvetleaf; Postemergence, 125 g ai/ha) | Velvetleaf plant response rating (velvetleaf; [3]) | Velvetleaf plant response rating (velvetleaf; [4]) | Plant response rating, Foxtail, Giant (giant foxtail; Postemergence, 125 g ai/ha) | Foxtail, Giant plant response rating (giant foxtail; [3]) | Foxtail, Giant plant response rating (giant foxtail; [4]) | Plant response rating, Corn (corn; Postemergence, 125 g ai/ha) | Corn plant response rating (corn; [3]) | Corn plant response rating (corn; [4]) | Plant response rating, Barnyardgrass (barnyardgrass [2]; Postemergence, 125 g ai/ha) | Barnyardgrass plant response rating (barnyardgrass [2]; [3]) | Barnyardgrass plant response rating (barnyardgrass [2]; [4]) | Plant response rating, Crabgrass, Large (crabgrass; Postemergence, 125 g ai/ha) | Crabgrass, Large plant response rating (crabgrass; [3]) | other results
1 | Cc1cc[n+]([O-])c([S+]([O-])Cc2c(C(F)(F)F)nn(CC(F)(F)F)c2Cl)c1 (stereo not drawn) [Compound 48] | 30 | 50 | 40 | 0 | 50 | 20 | 0 | 40 | 0 | 70 | 80 | 80 | 0 | 50 | 0 | 40 | 70 | 50 | 50 | 70 | Plant response rating, Morningglory (morningglory; Preemergence, 500 g ai/ha): 80; Plant response rating, Wheat (wheat; Preemergence, 500 g ai/ha): 80; Plant response rating, Barnyardgrass (barnyardgrass [1]; 62 g ai/ha): 0; Plant response rating, Barnyardgrass (barnyardgrass [1]; 250 g ai/ha): 0; Plant response rating, Velvetleaf (velvetleaf; Preemergence, 500 g ai/ha): 60; Plant response rating, Sedge, Umbrella (umbrella sedge): 50; Plant response rating, Foxtail, Giant (giant foxtail; Preemergence, 500 g ai/ha): 90; Plant response rating, Corn (corn; Preemergence, 500 g ai/ha): 60; Plant response rating, Barnyardgrass (barnyardgrass [2]; Preemergence, 500 g ai/ha): 90; Crabgrass, Large plant response rating (crabgrass; [4]): 70; Plant response rating, Crabgrass, Large (crabgrass; Preemergence, 500 g ai/ha): 90; Plant response rating, Rice (rice; 62 g ai/ha): 0; Plant response rating, Rice (rice; 250 g ai/ha): 25; Plant response rating, Ducksalad (duck salad; 62 g ai/ha): 0; Plant response rating, Ducksalad (duck salad; 250 g ai/ha): 25; Plant response rating, Pigweed (redroot pigweed; Postemergence, 125 g ai/ha): 50; Pigweed plant response rating (redroot pigweed; [3]): 60; Pigweed plant response rating (redroot pigweed; [4]): 70; Plant response rating, Pigweed (redroot pigweed; Preemergence, 500 g ai/ha): 100
2 | Cc1cc[n+]([O-])c(S(=O)(=O)Cc2c(C(F)(F)F)nn(CC(F)(F)F)c2Cl)c1 [Compound 49] | 0 | 0 | 30 | 0 | 0 | 0 | 20 | 30 | 0 | 40 | 70 | 80 | 0 | 0 | 0 | 40 | 70 | 70 | 30 | 70 | Plant response rating, Morningglory (morningglory; Preemergence, 500 g ai/ha): 30; Plant response rating, Wheat (wheat; Preemergence, 500 g ai/ha): 30; Plant response rating, Barnyardgrass (barnyardgrass [1]; 62 g ai/ha): 0; Plant response rating, Barnyardgrass (barnyardgrass [1]; 250 g ai/ha): 0; Plant response rating, Velvetleaf (velvetleaf; Preemergence, 500 g ai/ha): 40; Plant response rating, Sedge, Umbrella (umbrella sedge): 10; Plant response rating, Foxtail, Giant (giant foxtail; Preemergence, 500 g ai/ha): 90; Plant response rating, Corn (corn; Preemergence, 500 g ai/ha): 0; Plant response rating, Barnyardgrass (barnyardgrass [2]; Preemergence, 500 g ai/ha): 90; Crabgrass, Large plant response rating (crabgrass; [4]): 70; Plant response rating, Crabgrass, Large (crabgrass; Preemergence, 500 g ai/ha): 90; Plant response rating, Rice (rice; 62 g ai/ha): 0; Plant response rating, Rice (rice; 250 g ai/ha): 0; Plant response rating, Ducksalad (duck salad; 62 g ai/ha): 0; Plant response rating, Ducksalad (duck salad; 250 g ai/ha): 0; Plant response rating, Pigweed (redroot pigweed; Postemergence, 125 g ai/ha): 0; Pigweed plant response rating (redroot pigweed; [3]): 10; Pigweed plant response rating (redroot pigweed; [4]): 80; Plant response rating, Pigweed (redroot pigweed; Preemergence, 500 g ai/ha): 100
3 | Cn1nc(C(F)(F)F)c(CS(=O)(=O)c2cc(C3CC3)cc[n+]2[O-])c1OCC(F)(F)F [Compound 119] | 10 | 20 | 30 | 30 | 50 | 0 | 10 | 50 | 20 | 30 | 70 | 90 | 0 | 0 | 0 | 40 | 60 | 50 | 40 | 60 | Morningglory plant response rating (morningglory; [5]): 80; Wheat plant response rating (wheat; [5]): 30; Velvetleaf plant response rating (velvetleaf; [5]): 70; Foxtail, Giant plant response rating (giant foxtail; [5]): 100; Corn plant response rating (corn; [5]): 0; Barnyardgrass plant response rating (barnyardgrass [2]; [5]): 90; Crabgrass, Large plant response rating (crabgrass; [4]): 80; Crabgrass, Large plant response rating (crabgrass; [5]): 90; Plant response rating, Pigweed (redroot pigweed; Postemergence, 125 g ai/ha): 30; Pigweed plant response rating (redroot pigweed; [3]): 60; Pigweed plant response rating (redroot pigweed; [4]): 100; Pigweed plant response rating (redroot pigweed; [5]): 100
4 | CCCc1cc[n+]([O-])c(S(=O)(=O)Cc2c(C(F)(F)F)nn(C)c2OC(F)F)c1 [Compound 117] | 40 | 90 | 80 | 40 | 50 | 30 | 50 | 60 | 10 | 70 | 80 | 90 | 0 | 40 | 20 | 40 | 80 | 20 | 50 | 80 | Morningglory plant response rating (morningglory; [5]): 90; Wheat plant response rating (wheat; [5]): 70; Velvetleaf plant response rating (velvetleaf; [5]): 90; Foxtail, Giant plant response rating (giant foxtail; [5]): 90; Corn plant response rating (corn; [5]): 60; Barnyardgrass plant response rating (barnyardgrass [2]; [5]): 90; Crabgrass, Large plant response rating (crabgrass; [4]): 80; Crabgrass, Large plant response rating (crabgrass; [5]): 90; Plant response rating, Pigweed (redroot pigweed; Postemergence, 125 g ai/ha): 60; Pigweed plant response rating (redroot pigweed; [3]): 80; Pigweed plant response rating (redroot pigweed; [4]): 100; Pigweed plant response rating (redroot pigweed; [5]): 100
5 | CCCc1cc[n+]([O-])c(S(=O)(=O)Cc2c(C(F)(F)F)nn(C)c2OCC(F)(F)F)c1 [Compound 115] | 0 | 0 | 30 | 30 | 50 | 20 | 0 | 20 | 20 | 40 | 80 | 90 | 0 | 20 | 30 | 60 | 70 | 90 | 20 | 70 | Morningglory plant response rating (morningglory; [5]): 80; Wheat plant response rating (wheat; [5]): 50; Velvetleaf plant response rating (velvetleaf; [5]): 60; Foxtail, Giant plant response rating (giant foxtail; [5]): 100; Corn plant response rating (corn; [5]): 50; Barnyardgrass plant response rating (barnyardgrass [2]; [5]): 90; Crabgrass, Large plant response rating (crabgrass; [4]): 80; Crabgrass, Large plant response rating (crabgrass; [5]): 100; Plant response rating, Pigweed (redroot pigweed; Postemergence, 125 g ai/ha): 20; Pigweed plant response rating (redroot pigweed; [3]): 80; Pigweed plant response rating (redroot pigweed; [4]): 100; Pigweed plant response rating (redroot pigweed; [5]): 100
